From the NIST ThermoML archive (doi:10.1021/acs.jced.7b01006)
Numbers after ± are expanded uncertainties.

Assay: xn = mol fraction of the nth substance listed
Settings: 100 kPa, Liquid; for electrical conductivity: Alternating current cell with electrodes; for viscosity: Falling or rolling sphere viscometry; for mass density: Vibrating tube method

CCCCn1cc[n+](C)c1C.N#C[S-] [1-butyl-2,3-dimethylimidazolium thiocyanate] + CC#N
Settings	electrical conductivity [S/m]	mass density [kg/m3]	viscosity [mPa·s]
308.15 K, x1 = 0.1001	5.92 ± 0.59	873.64 ± 2	4.393 ± 0.061
308.15 K, x1 = 0.2004	5.36 ± 0.54	938.14 ± 2	9.306 ± 0.13
308.15 K, x1 = 0.2999	4.79 ± 0.48	982.11 ± 2.1	16.16 ± 0.24
308.15 K, x1 = 0.4003	2.34 ± 0.23	1015.92 ± 2.1	24.59 ± 0.38
308.15 K, x1 = 0.5001	1.56 ± 0.16	1028.06 ± 2.2	34.95 ± 0.56
308.15 K, x1 = 0.5999	1.26 ± 0.13	1040.79 ± 2.2	47.89 ± 0.79
308.15 K, x1 = 0.6999	0.96 ± 0.096	1052.69 ± 2.4	62.82 ± 1.1
308.15 K, x1 = 0.8002	0.853 ± 0.085	1059.56 ± 2.5	78.98 ± 1.7
308.15 K, x1 = 0.9002	0.61 ± 0.061	1066.57 ± 2.6	97.33 ± 2.6
308.15 K, x1 = 1	0.386 ± 0.039	1072.16 ± 2.8	118.9 ± 3.9
313.15 K, x1 = 0.1001	6.23 ± 0.62	869.75 ± 2	3.257 ± 0.045
313.15 K, x1 = 0.2004	5.7 ± 0.57	934.72 ± 2	6.633 ± 0.094
313.15 K, x1 = 0.2999	5.15 ± 0.52	978.72 ± 2.1	11.34 ± 0.17
313.15 K, x1 = 0.4003	2.67 ± 0.27	1013.21 ± 2.1	17.39 ± 0.27
313.15 K, x1 = 0.5001	1.81 ± 0.18	1025.43 ± 2.2	25.45 ± 0.4
313.15 K, x1 = 0.5999	1.48 ± 0.15	1038.3 ± 2.2	35.42 ± 0.59
313.15 K, x1 = 0.6999	1.16 ± 0.12	1050.1 ± 2.4	46.81 ± 0.8
313.15 K, x1 = 0.8002	1.03 ± 0.1	1057.26 ± 2.5	59.49 ± 1
313.15 K, x1 = 0.9002	0.749 ± 0.075	1064.3 ± 2.6	73.79 ± 1.6
313.15 K, x1 = 1	0.496 ± 0.05	1069.15 ± 2.8	90.46 ± 2.3
318.15 K, x1 = 0.1001	6.53 ± 0.65	865.95 ± 2	2.458 ± 0.034
318.15 K, x1 = 0.2004	6.03 ± 0.6	931.41 ± 2	4.722 ± 0.067
318.15 K, x1 = 0.2999	5.52 ± 0.55	975.35 ± 2.1	8.162 ± 0.12
318.15 K, x1 = 0.4003	3.03 ± 0.3	1010.57 ± 2.1	12.95 ± 0.2
318.15 K, x1 = 0.5001	2.07 ± 0.21	1022.69 ± 2.2	18.62 ± 0.3
318.15 K, x1 = 0.5999	1.73 ± 0.17	1035.83 ± 2.2	26.33 ± 0.43
318.15 K, x1 = 0.6999	1.38 ± 0.14	1047.6 ± 2.3	35.55 ± 0.61
318.15 K, x1 = 0.8002	1.23 ± 0.12	1055.02 ± 2.5	46.09 ± 0.82
318.15 K, x1 = 0.9002	0.913 ± 0.091	1061.87 ± 2.6	57.94 ± 1
318.15 K, x1 = 1	0.627 ± 0.063	1066.16 ± 2.8	72.04 ± 1.5
323.15 K, x1 = 0.1001	6.83 ± 0.68	862.09 ± 2	1.882 ± 0.026
323.15 K, x1 = 0.2004	6.37 ± 0.64	927.98 ± 2	3.578 ± 0.051
323.15 K, x1 = 0.2999	5.89 ± 0.59	972.17 ± 2.1	5.904 ± 0.087
323.15 K, x1 = 0.4003	3.4 ± 0.34	1007.9 ± 2.1	9.491 ± 0.14
323.15 K, x1 = 0.5001	2.37 ± 0.24	1020.14 ± 2.1	13.67 ± 0.22
323.15 K, x1 = 0.5999	2.01 ± 0.2	1033.37 ± 2.2	19.96 ± 0.33
323.15 K, x1 = 0.6999	1.63 ± 0.16	1045.21 ± 2.3	27.68 ± 0.48
323.15 K, x1 = 0.8002	1.46 ± 0.15	1052.82 ± 2.5	36.89 ± 0.66
323.15 K, x1 = 0.9002	1.1 ± 0.11	1059.62 ± 2.6	46.83 ± 0.87
323.15 K, x1 = 1	0.774 ± 0.077	1063.2 ± 2.8	57.11 ± 1.1
